One may read the EC50 as the concentration at which the effect is half-maximal. One may read the IC50 as the midpoint of a concentration-inhibition curve.

Assay [1] addresses T1, TRPV4 (transient receptor potential vanilloid 4) (Mus musculus, UniProt Q9EPK8). The assay can be described thus: Calcium influx. Format: cell-based.
Assay [2] addresses T1, TRPV4 (transient receptor potential vanilloid 4). The experiment in a line: Inhibition of GSK1016790A-induced calcium influx. Format: cell-based.

T1 sequence (Q9EPK8 whole entry): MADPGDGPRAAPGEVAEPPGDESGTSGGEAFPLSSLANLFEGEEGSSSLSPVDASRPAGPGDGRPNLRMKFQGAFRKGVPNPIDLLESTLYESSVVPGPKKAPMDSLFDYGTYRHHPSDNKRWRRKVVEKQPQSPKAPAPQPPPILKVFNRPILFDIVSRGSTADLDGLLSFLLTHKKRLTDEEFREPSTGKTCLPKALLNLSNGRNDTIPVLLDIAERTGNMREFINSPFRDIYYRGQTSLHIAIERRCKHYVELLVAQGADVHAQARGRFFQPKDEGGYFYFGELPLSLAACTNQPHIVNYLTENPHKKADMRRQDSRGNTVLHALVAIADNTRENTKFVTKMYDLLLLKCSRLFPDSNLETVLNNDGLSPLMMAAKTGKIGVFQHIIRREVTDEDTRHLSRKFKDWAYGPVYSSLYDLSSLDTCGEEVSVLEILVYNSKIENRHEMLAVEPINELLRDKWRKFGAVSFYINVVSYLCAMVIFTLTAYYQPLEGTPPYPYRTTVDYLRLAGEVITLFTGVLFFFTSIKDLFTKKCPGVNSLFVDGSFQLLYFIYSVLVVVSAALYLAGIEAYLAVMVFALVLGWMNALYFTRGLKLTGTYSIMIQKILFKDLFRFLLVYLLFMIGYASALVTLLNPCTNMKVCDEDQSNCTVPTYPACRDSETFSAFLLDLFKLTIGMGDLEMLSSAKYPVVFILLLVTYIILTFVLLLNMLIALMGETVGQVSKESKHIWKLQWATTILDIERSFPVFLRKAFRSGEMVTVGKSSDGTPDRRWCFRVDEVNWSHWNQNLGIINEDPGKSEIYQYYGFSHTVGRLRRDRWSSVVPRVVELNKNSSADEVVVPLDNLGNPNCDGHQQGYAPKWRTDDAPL

Turning to `CC(C)C[C@H](NC(=O)c1cc2ccccc2s1)C(=O)N1CCN(C(=O)[C@H](CO)NS(=O)(=O)c2ccc(Cl)cc2Cl)CC1` [GSK, GSK1016790A], the EC50 in assay [1] turned out to be 0.05 µM.
For `Cc1c(C(=O)Nc2cccc(C(F)(F)F)c2)cc(-c2ccccc2)n1CCCN1CCOCC1` [HC, HC067047], the IC50 in assay [2] stood at 7 µM.

Values taken from paper PMC4684994 (Journal of immunology (Baltimore, Md. : 1950), 2015).
